This assay concerns the target T1, recombinant hGYS2/GN1 protein (Homo sapiens, UniProt P54840).
T1 sequence (P54840 1-703): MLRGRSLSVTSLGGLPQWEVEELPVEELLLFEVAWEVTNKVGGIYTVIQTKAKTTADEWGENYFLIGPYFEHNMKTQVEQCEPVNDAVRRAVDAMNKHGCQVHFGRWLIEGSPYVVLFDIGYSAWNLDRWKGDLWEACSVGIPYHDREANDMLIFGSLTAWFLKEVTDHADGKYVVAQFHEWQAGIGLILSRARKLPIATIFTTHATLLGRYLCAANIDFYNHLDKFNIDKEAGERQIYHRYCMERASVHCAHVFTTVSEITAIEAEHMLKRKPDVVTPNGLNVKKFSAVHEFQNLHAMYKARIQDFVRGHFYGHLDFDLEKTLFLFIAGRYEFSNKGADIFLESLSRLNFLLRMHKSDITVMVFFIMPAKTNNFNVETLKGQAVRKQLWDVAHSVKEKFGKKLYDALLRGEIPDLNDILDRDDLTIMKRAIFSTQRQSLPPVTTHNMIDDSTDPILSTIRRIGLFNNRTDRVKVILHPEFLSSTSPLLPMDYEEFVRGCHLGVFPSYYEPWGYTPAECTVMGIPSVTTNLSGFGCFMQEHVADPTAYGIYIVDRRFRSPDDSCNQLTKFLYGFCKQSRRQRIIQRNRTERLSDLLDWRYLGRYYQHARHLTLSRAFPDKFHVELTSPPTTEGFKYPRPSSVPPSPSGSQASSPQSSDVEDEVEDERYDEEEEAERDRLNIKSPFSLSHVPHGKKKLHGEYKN
T1 sequence (P46976 1-350 partner): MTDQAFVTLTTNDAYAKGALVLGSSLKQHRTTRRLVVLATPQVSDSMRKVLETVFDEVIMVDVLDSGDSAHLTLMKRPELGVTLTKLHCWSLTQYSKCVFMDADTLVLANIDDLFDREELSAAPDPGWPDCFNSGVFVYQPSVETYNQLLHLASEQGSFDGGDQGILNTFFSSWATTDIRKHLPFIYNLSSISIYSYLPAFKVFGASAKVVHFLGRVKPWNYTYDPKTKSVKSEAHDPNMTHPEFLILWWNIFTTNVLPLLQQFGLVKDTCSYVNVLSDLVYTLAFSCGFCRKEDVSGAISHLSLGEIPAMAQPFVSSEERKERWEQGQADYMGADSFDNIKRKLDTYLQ
The experiment in a line: GYS2 coupled enzyme assay (PK/LDH). It is filed as biochemical. The settings on record: geometric mean of at least 2 assay runs; NADH absorbance at 340 nm. The essentials: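 Reaction in 50 mM Tris pH 7.5, 2 mM MgCl2, 100 mM KCl, 0.02% BSA, 1 mM TCEP, 2.5% DMSO, with 0.2% glycogen. Substrate buffer held 200 nM hGYS2/GN1, 2 mM each UDP-glucose, G6P and PEP, 0.6 mM NADH and PK/LDH, before 1:1 mixing. A340 slope over 10 min was control-normalized and Hill-fitted; IC50 = geometric mean of ≥2 runs, duplicates per run.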

The values that follow come from US20260085034A1, “N-(BENZHYDRYL)CYCLOALKYLCARBOXAMIDE DERIVATIVES AS INHIBITORS OF GLYCOGEN SYNTHASE 1 (GYS1) AND METHODS OF USE THEREOF” (Maze Therapeutics, Inc., priority 2022, published 2026).

A word on the IC50: it is the concentration needed to halve the response being measured.

Consider `CC(C)c1ccc([C@@H](NC(=O)[C@H]2C[C@@H]2F)c2ccn[nH]2)cc1F` (single isomer, unassigned) [compound 11], for which the IC50 is above 100 µM.
